Article PMC6388989 (Cancer Management and Research, 2019)
“Also recorded” adds a separate entry of the source.

Legend:
[1] = system: H460 cells; format: cell-based, human
[2] = system: NCI-H460 cells; format: cell-based, human; details: 48 hours
[3] = system: NCI-H460 cells; format: cell-based, human
[4] = system: NCI-H460 cells; format: cell-based, human; details: 48 hours; remark: listed apart in the source
[5] = system: NCI-H460 cells; format: cell-based, human; remark: listed apart in the source
[6] = system: protein markers in NCI-H460 cells; format: cell-based, human; details: 48 hours
[7] = system: 3T3 cells
[8] = system: marker genes in NCI-H460 cells; format: cell-based, human; details: 48 hours
[9] = system: NIH-3T3 cells; details: at 50 µM
[10] = system: NCI-H460 cells; format: cell-based, human; details: 48 hours; remark: listed apart in the source
[11] = system: H460 cells; format: cell-based, human; remark: listed apart in the source
[12] = system: NCI-H460 cells; format: cell-based, human; remark: listed apart in the source

C=C(C)[C@@H]1CC[C@]2(CO)CC[C@]3(C)[C@H](CC[C@@H]4[C@@]5(C)CC[C@H](O)C(C)(C)[C@@H]5CC[C@]43C)[C@@H]12 [Betulin (3), Lup-20 (29)-ene-3, 28-diol]
morphological changes of H460 cells [1]: membrane blebbing and formation of apoptotic bodies | mitochondrial membrane potential (Δψm) [2]: collapse of MMP | reduction in wound healing rates of treated vs untreated cells [3]: approximate threefold reduction | nuclear morphology [4]: highly condensed nucleus, apoptotic bodies and DNA fragmentation | induction of apoptosis (FACS) [5]: significantly underwent apoptosis in a dose-dependent manner | BCL-2L1 protein expression (immunocytochemistry) [6]: marked inhibition | caspase-3 protein expression (immunofluorescence) [6]: significant upregulation | caspase-6 protein expression (immunofluorescence) [6]: significant upregulation | caspase-8 protein expression (immunofluorescence) [6]: decreased with the increase in betulin treatment | expression of proliferative marker Ki-67 [6]: significant inhibition | osteopontin levels (immunocytochemistry) [6]: positively inhibited | morphology of 3T3 cells [7]: regained their normal morphology and started to propagate | BAK gene expression [8]: upregulated | BAX gene expression [8]: upregulated | BCL-2L1 gene expression [8]: significantly downregulated | COX-2 gene expression [8]: inhibited | HRK gene expression [8]: upregulation | VEGF gene expression [8]: inhibited | caspase-3 gene expression [8]: significantly upregulated | caspase-6 gene expression [8]: significantly upregulated | caspase-8 gene expression [8]: inhibited; also recorded: significantly downregulated | caspase-9 gene expression [8]: significantly upregulated | p53 gene expression [8]: significantly downregulated | cytotoxicity to normal NIH-3T3 cells [9]: noncytotoxic | invasive ability of NCI-H460 cells [10]: inhibited in a dose-dependent manner | colony formation [11]: completely eradicated cancer cells | activity against cancer cells compared to normal 3t3 cells [12]: four times more active
